Where two headings read alike, the source gives them in different places.
What was measured:
[1] = target: T1, Human soluble guanylate cyclase enzyme (hsGC) (Homo sapiens, UniProt Q02108+Q02153); assay: Purified human sGC enzyme synergy assay in the presence of 1 μM sodium nitroprusside (SNP); assay type: biochemical; conditions: compound at 30 μM, presence of 1 μM SNP; Table 5A
T1 construct: purchased Enzo Inc. ALX-201-177
T1 sequence (Q02153 1-619): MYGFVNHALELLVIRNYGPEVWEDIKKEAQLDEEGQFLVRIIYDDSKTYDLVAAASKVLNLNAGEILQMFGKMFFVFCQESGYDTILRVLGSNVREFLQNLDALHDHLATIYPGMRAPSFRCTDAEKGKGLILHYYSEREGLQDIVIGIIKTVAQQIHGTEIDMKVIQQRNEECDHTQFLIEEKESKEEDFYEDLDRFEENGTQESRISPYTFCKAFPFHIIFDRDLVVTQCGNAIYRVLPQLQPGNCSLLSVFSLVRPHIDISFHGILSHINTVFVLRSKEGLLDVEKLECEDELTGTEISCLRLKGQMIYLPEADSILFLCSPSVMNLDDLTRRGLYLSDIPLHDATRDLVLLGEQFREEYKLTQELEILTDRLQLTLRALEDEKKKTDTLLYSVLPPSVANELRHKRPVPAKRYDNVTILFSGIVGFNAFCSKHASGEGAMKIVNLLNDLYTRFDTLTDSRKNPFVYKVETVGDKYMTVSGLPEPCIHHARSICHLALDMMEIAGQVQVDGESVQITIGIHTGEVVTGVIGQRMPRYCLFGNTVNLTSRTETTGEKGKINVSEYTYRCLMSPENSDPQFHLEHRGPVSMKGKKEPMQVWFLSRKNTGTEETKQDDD
T1 sequence (Q02108 1-690): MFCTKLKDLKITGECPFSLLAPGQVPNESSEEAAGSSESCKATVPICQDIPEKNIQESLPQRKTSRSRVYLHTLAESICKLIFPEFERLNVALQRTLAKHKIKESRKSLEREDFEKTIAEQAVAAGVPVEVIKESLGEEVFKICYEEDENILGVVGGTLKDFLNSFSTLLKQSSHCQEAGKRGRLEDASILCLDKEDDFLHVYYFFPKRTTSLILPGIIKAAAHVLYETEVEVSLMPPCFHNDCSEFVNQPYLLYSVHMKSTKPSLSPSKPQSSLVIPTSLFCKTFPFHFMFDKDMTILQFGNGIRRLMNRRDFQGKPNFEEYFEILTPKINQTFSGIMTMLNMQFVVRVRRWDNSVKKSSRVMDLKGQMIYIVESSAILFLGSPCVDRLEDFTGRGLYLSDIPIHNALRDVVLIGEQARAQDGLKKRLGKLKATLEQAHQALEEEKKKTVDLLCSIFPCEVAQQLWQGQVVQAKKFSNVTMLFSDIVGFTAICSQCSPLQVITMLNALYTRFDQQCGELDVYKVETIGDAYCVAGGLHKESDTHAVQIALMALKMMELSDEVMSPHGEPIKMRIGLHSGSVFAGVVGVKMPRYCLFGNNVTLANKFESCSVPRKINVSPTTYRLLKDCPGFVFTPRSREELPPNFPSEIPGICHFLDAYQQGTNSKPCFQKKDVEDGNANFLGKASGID
Method: (§1) Human soluble guanylate cyclase enzyme (hsGC) obtained from Enzo Inc. (P/N: ALX-201-177) was used to evaluate the activity of test compounds. The assay reactions contained 0.1 M Tris (pH 8.0), 0.5 mg/mL BSA (pH 8.0), 2 mM DTT, 2 mM MgCl2, 300 μM GTP, 1 mM 3-isobutyl-1-methylxanthine (IBMX) and 5 ng human soluble guanylate cyclase enzyme. Test compounds in DMSO were then added (2 μL, 10 or 30 μM final concentration) and incubated (200 μL, 96-well plate format) at 37° C. for 30 minutes. The controls were carried out using 2 μL DMSO. After the 30 minute incubation, the reaction was stopped with the addition of 200 μl of cold methanol. The plate was then centrifuged at 3,200 rpm for 10 minutes at room temperature. Supernatants (200 μL) were collected and transferred to a new 96 well plate for analysis.
(§2) An 8 point cGMP (Sigma-Aldrich P/N: G6129) standard curve was prepared in assay buffer ranging from 0.156-20 μM. Samples for the cGMP standard curve were then diluted with an equal volume of methanol resulting in final cGMP concentrations of 0.078-10 μM.
(§3) The cGMP standard curve was generated using GraphPad Prism Software.
(§4) Calculations: Specific Activity was determined by the amount of cGMP formed (nmoles) per mg of sGC per min. Enzyme “fold-change” was calculated by dividing Specific Activity for test compounds by Specific Activity of DMSO controls.
Biological Measurement by the Purified Human sGC Enzyme Synergy Performed in the Presence of Sodium Nitroprusside (SNP), a Nitric Oxide Donor
Enzyme assays were performed as described above, but was done in the absence or presence of 1 μM sodium nitroprusside (SNP).

[2] = target: T1, Human soluble guanylate cyclase enzyme (hsGC); assay: Purified human sGC enzyme activity assay (without SNP); assay type: biochemical; conditions: compound at 30 μM, absence of SNP; fold over DMSO control; Table 5A
Method: Biological Activity Measurements by the Purified Human sGC Enzyme Activity Assay
as §1, §2, §3, §4

[3] = target: T2, soluble guanylate cyclase (sGC) (Homo sapiens, UniProt Q02108+Q02153); assay: sGC-HEK-cGMP assay (run with SNP incubation); assay type: cell-based; conditions: for Emax: 10 μM SNP, 100% = 30 μM BAY 41-2272 with 10 μM SNP, read-out: HEK assay Emax-unconstrained (Percent); for HEK MEC-10: concentration that would elicit 10% of the Emax in the presence of 10 μM SNP; for EC50: in the presence of 10 μM SNP
T2 construct: endogenously expressing soluble guanylate cyclase (sGC); endogenous in cells; host or cells: HEK293
T2 sequence (Q02153 1-619): T1 sequence (Q02153 1-619)
T2 sequence (Q02108 1-690): T1 sequence (Q02108 1-690)
Method: Biological Activity Measurement by the sGC-HEK-cGMP Assay
(Assay Run with SNP Incubation)
Human embryonic kidney cells (HEK293), endogenously expressing soluble guanylate cyclase (sGC), were used to evaluate the activity of test compounds. Compounds stimulating the sGC receptor should cause an increase in the intracellular concentration of cGMP. HEK 293 cells were seeded in Dulbecco's Modification of Eagle's Medium supplemented with fetal bovine serum (10% final) and L-glutamine (2 mM final) in a 2004 volume at a density of 1×10^5 cells/well in a poly-D-lysine coated 96 well flat bottom plate and grown overnight at 37° C. Medium was aspirated and cells were washed with 1× Hank's Buffered Saline Salt Solution (2004). Cells were then incubated for 15 minutes at 37° C. with 0.5 mM 3-isobutyl-1-methylxanthine (2004). Test article and sodium nitroprusside were then added to the assay mixture (24 each) and incubated at 37° C. for 10 minutes. After the 10 minute incubation, the assay mixture was aspirated and 0.1M HCl (2004) was added to the cells. The plate was incubated at 4° C. for 30 minutes in the 0.1M HCl to stop the reaction and lysed the cells. The plates were then centrifuged at 1,200 g for 5 minutes at room temperature. Supernatants were collected and transferred to a new flat bottom 96 well plate for analysis. Vehicle controls were carried out using DMSO (1%). A known sGC stimulator, BAY 41-2272, was used as the positive control. Samples were diluted with an equal volume of 1 M Ammonium Acetate (pH 7) to neutralize samples for better chromatography. A 2×cGMP standard curve was prepared in 0.1 M HCl and then diluted with an equal volume of 1 M Ammonium Acetate, with the following final concentrations in nM: 1024, 512, 256, 128, 64, 32, 16, 8, 4, 2, 1.cGMP concentrations were determined from each sample using the LC/MS conditions (Table 2 below) and calculated standard curve. EC50 values were calculated from concentration-response curves generated with GraphPad Prism Software.

[4] = Table 3B, top of concentration-response curve not fitted to 100%
[5] = Table 3E, read-out: HEK assay EC50
[6] = top of concentration-response curve not fitted to 100%, Table 3E, read-out: HEK assay EC50-unconstrained
[7] = Table 3C, top of concentration-response curve not fitted to 100%
[8] = Table 3F, read-out: HEK assay EC50
[9] = top of concentration-response curve not fitted to 100%, Table 3F, read-out: HEK assay EC50-unconstrained

Row | SMILES | Emax [3, 7] [%] | HEK MEC-10 ([3]; Table 3F) | EC50 [3, 8] [µM] | EC50 [3, 9] [µM] | other results
1 | O=c1[nH]c(-c2cc(-c3ccon3)n(Cc3ccncc3F)n2)ncc1F [Compound 26] | – | – | – | – | Enzyme Activity (increase at 30 μM with SNP) [1]: A (no increase to <2 fold increase); Enzyme Activity (increase at 30 μM without SNP) [2]: A (no increase to <2 fold increase)
2 | COc1nc(-c2cc(-c3ccon3)n(Cc3ccccc3F)n2)ncc1F [Compound 28] | – | – | – | – | Emax ([3]; Table 3A, top of concentration-response curve not fitted to 100%): 60 to 80%; HEK MEC-10 ([3]; Table 3D): B (0.01 to <0.1 μM); Enzyme Activity (increase at 30 μM with SNP) [1]: D (10 or <20 fold increase); Enzyme Activity (increase at 30 μM without SNP) [2]: C (5 to <10 fold increase)
3 | Fc1cccnc1Cn1nc(-c2ncccn2)cc1-c1ccon1 [Compound 57] | – | – | – | – | Enzyme Activity (increase at 30 μM with SNP) [1]: A (no increase to <2 fold increase); Enzyme Activity (increase at 30 μM without SNP) [2]: A (no increase to <2 fold increase)
4 | Fc1ncccc1Cn1nc(-c2ncccn2)cc1-c1ccon1 [Compound 66] | – | – | – | – | Enzyme Activity (increase at 30 μM with SNP) [1]: A (no increase to <2 fold increase); Enzyme Activity (increase at 30 μM without SNP) [2]: A (no increase to <2 fold increase)
5 | Oc1nc(-c2cc(-c3ccon3)n(Cc3cccc(Cl)c3F)n2)ncc1Cl [Compound 82] | – | – | – | – | Emax [3, 4]: 40 to 60%; HEK MEC-10 ([3]; Table 3E): B (0.01 to <0.1 μM); EC50 [3, 5]: 40 to 60 µM; EC50 [3, 6]: 0.01 to 0.5 µM
6 | Nc1nc(-c2cc(-c3ccon3)n(Cc3ccccc3F)n2)ncc1N1CC(C(F)(F)F)OC1=O (stereo not shown) [Compound 83, 3-(4-amino-2-(1-(2-fluorobenzyl)-5-(isoxazol-3-yl)-1H-pyrazol-3-yl)pyrimidin-5-yl)-5-(trifluoromethyl)oxazolidin-2-one] | – | – | – | – | EC50 [3, 5]: 60 to 100 µM; EC50 [3, 6]: 0.5 to 1 µM
7 | Oc1nc(-c2cc(-c3ccco3)n(Cc3ccccc3F)n2)ncc1F [Compound 90] | – | – | – | – | Emax [3, 4]: 40 to 60%; EC50 [3, 6]: 0.01 to 0.5 µM
8 | Nc1nc(-c2cc(-c3ccon3)n(Cc3ccccc3F)n2)ncc1NC(=O)C(Cl)(Cl)Cl [Compound 98] | 60 to 80 | B (0.01 to <0.1 μM) | < 20 | 0.01 to 0.5 | –
9 | Nc1nc(-c2cc(-c3ccon3)n(Cc3cccc(F)c3F)n2)ncc1NC(=O)c1ccc(C(F)(F)F)cc1 [Compound 101] | 80 to 100 | A (0.001 to <0.01 μM) | < 20 | 0.01 to 0.5 | –
10 | CN(C)Cc1ccc(C(=O)Nc2cnc(-c3cc(-c4ccon4)n(Cc4cccc(F)c4F)n3)nc2N)cc1 [Compound 102] | 60 to 80 | C (0.1 to <1 μM) | < 20 | 1 to 5 | –
11 | Nc1nc(-c2cc(-c3ccon3)n(Cc3cccc(F)c3F)n2)ncc1NC(=O)c1ccc[nH]1 [Compound 103] | 80 to 100 | A (0.001 to <0.01 μM) | < 20 | 0.01 to 0.5 | –
12 | CN(C)Cc1cccc(C(=O)Nc2cnc(-c3cc(-c4ccon4)n(Cc4cccc(F)c4F)n3)nc2N)c1 [Compound 104] | 40 to 60 | C (0.1 to <1 μM) | < 20 | 1 to 5 | –
13 | Nc1nc(-c2cc(-c3ccon3)n(Cc3cccc(F)c3F)n2)ncc1NC(=O)c1cc[nH]c1 [Compound 105] | 60 to 80 | B (0.01 to <0.1 μM) | < 20 | 0.5 to 1 | –
14 | Nc1nc(-c2cc(-c3ccon3)n(Cc3cccc(F)c3F)n2)ncc1NC(=O)c1ccn[nH]1 [Compound 106] | 80 to 100 | D (1 to <10 μM) | < 20 | 5 to 10 | –
15 | Nc1nc(-c2cc(-c3ccon3)n(Cc3cccc(F)c3F)n2)ncc1NC(=O)C12CC3CC(CC(O)(C3)C1)C2 [Compound 107] | 40 to 60 | C (0.1 to <1 μM) | < 20 | 1 to 5 | –
16 | Nc1nc(-c2cc(-c3ccon3)n(Cc3ccccc3F)n2)ncc1NC(=O)CCC(F)(F)F [Compound 111] | 60 to 80 | B (0.01 to <0.1 μM) | < 20 | 0.01 to 0.5 | –
17 | N#Cc1nc(-c2cc(-c3ccon3)n(Cc3ccccc3F)n2)ncc1F [Compound 115] | 20 to 40 | D (1 to <10 μM) | 40 to 60 | 1 to 5 | –
18 | COc1nc(-c2cc(-c3ccon3)n(Cc3ccccc3F)n2)nc(Cl)c1F [Compound 116] | 20 to 40 | D (1 to <10 μM) | 60 to 100 | – | –

Reference: patent publication US20150342954A1, “2-BENZYL, 3-(PYRIMIDIN-2-YL) SUBSTITUTED PYRAZOLES USEFUL AS SGC STIMULATORS” (IRONWOOD PHARMACEUTICALS, INC., priority 2011, published 2015)
